From ChEMBL document CHEMBL3352011, “Identification of novel 4-anilinoquinazoline derivatives as potent EGFR inhibitors both under normoxia and hypoxia” (Bioorg Med Chem, 2014) come the findings set out here.

Series [1] deals with Epidermal growth factor receptor (Homo sapiens, UniProt P00533).
Description: Inhibition of wild type EGFR (unknown origin) by Z'-Lyte kinase assay
Series [2] relates to A549. The experiment in a line: cells. The note with it: Homo sapiens, A549, 72 h. The format is functional, cell-based.
Description: Antiproliferative activity against human A549 cells assessed as inhibition of cell proliferation under normoxia conditions after 72 hrs by SRB assay
Series [3] relates to A549. The experiment in a line: cells. The note with it: Homo sapiens, A549, 72 h. The series is classed as functional, cell-based. The source holds these as a separate data set.
Description: Antiproliferative activity against human A549 cells assessed as inhibition of cell proliferation under hypoxia conditions after 72 hrs by SRB assay
Series [4] deals with HT-29. The experiment in a line: cells. The format is functional, cell-based. To be noted: Homo sapiens, HT-29, 72 h.
Description: Antiproliferative activity against human HT-29 cells assessed as inhibition of cell proliferation under normoxia conditions after 72 hrs by SRB assay
Series [5] relates to HT-29. Description: cells. The note with it: Homo sapiens, HT-29, 72 h. The series is classed as functional, cell-based. The source holds these as a separate data set.
Description: Antiproliferative activity against human HT-29 cells assessed as inhibition of cell proliferation under hypoxia conditions after 72 hrs by SRB assay
Series [6] is described as follows: Bioreductive drug activation in pH 7.4 PBS solution assessed as formation of hydroxylamino-imidazole at 4.2 umol incubated for 6 hrs in presence of cysteine and zinc dust by HPLC-Q-ToF-MS method.
The nature of series [7]: Bioreductive drug activation in pH 7.4 PBS solution assessed as formation of imidazole radical at 4.2 umol incubated for 6 hrs in presence of cysteine and zinc dust by HPLC-Q-ToF-MS method.
In series [8] the test system is A549. The experiment in a line: Induction of apoptosis in human A549 cells at 10 uM under normoxia conditions after 72 hrs by annexin VFITC/propidium iodide staining based flow cytometry (reference value: 3.94%). The format is functional. (In general: A flow cytometer gives signals particle by particle.)
For series [9], the system named is A549. The experiment in a line: Induction of apoptosis in human A549 cells at 10 uM under hypoxia conditions after 72 hrs by annexin VFITC/propidium iodide staining based flow cytometry (reference value: 4.7%). The format is functional.
Series [10] is described as follows: Drug metabolism in mouse liver microsomes at 5 uM in presence of NADPH incubated for 30 mins under hypoxia conditions by HPLC method. The format is ADME. To be noted: read-out: Drug metabolism.
Series [11] in a line: Drug metabolism in mouse liver microsomes at 5 uM in presence of NADPH incubated for 30 mins under normoxia conditions by HPLC method. The format is ADME. The note with it: read-out: Drug metabolism. A general note: Liver microsomes are vesicles of endoplasmic reticulum, rich in cytochrome P450 enzymes.

Chain of Epidermal growth factor receptor (P00533 whole entry): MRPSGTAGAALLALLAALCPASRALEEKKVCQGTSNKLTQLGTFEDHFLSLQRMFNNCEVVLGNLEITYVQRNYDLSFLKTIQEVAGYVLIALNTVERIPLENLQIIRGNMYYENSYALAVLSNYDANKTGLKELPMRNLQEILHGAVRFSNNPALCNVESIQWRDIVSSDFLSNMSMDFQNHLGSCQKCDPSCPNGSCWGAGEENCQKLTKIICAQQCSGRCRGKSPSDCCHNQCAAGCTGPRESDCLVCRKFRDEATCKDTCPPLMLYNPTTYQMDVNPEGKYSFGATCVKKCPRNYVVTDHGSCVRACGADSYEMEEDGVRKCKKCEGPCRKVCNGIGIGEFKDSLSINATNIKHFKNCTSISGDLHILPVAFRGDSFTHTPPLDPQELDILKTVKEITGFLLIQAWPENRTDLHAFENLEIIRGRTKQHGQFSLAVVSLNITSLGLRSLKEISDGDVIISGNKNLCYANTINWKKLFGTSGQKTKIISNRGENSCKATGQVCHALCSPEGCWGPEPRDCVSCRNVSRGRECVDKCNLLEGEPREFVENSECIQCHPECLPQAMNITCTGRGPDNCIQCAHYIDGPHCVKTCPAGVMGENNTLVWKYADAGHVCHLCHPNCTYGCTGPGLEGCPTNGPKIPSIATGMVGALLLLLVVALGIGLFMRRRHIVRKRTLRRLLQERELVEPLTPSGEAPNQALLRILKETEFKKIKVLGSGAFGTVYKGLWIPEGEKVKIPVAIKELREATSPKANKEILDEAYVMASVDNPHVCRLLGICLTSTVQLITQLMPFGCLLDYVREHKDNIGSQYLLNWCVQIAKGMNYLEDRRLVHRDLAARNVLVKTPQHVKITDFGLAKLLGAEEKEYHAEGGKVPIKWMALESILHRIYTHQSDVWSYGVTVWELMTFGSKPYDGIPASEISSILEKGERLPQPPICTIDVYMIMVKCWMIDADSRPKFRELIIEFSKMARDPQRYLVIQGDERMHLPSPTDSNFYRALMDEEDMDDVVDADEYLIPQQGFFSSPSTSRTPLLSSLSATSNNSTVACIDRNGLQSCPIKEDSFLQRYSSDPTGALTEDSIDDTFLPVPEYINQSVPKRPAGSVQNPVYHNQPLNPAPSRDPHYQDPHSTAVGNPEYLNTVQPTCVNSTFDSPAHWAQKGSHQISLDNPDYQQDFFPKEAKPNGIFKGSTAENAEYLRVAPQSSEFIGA

As a reminder, the IC50 is the concentration needed to halve the response being measured. On to `COc1cc2c(Nc3cccc(Br)c3)ncnc2cc1OCCCCCCn1ccnc1[N+](=O)[O-]`, for which the 50% inhibitory concentration (IC50) in series [1] was 0.00078 µM; in series [2], 30.2 µM; in [3], 20.2 µM; in series [4] it was 10.5 µM; in series [5] it was 4.3 µM.
Regarding `COc1cc2c(Nc3ccc(F)c(Cl)c3)ncnc2cc1OCCCn1ccnc1[N+](=O)[O-]`, the IC50 in series [1] turned out to be 0.00077 µM; in series [2], 5.91 µM; in series [3] it was 4.31 µM; in series [4], 6.14 µM; in series [5], 2.06 µM.
Taken in the same sequence, the figures for `COc1cc2c(Nc3ccc(OCc4cccc(F)c4)c(Cl)c3)ncnc2cc1OCCCn1ccnc1[N+](=O)[O-]` were 0.0305 µM, 3.97 µM, 1.52 µM, 3.79 µM and 0.94 µM.
The matching figures for `COc1cc2c(Nc3ccc(F)c(Cl)c3)ncnc2cc1OCCCCn1ccnc1[N+](=O)[O-]`: 0.00031 µM, 2.67 µM, 1.41 µM, 1.54 µM and 0.67 µM.
As for `C#Cc1cccc(Nc2ncnc3cc(OCCOCCn4ccnc4[N+](=O)[O-])c(OC)cc23)c1`, the half-inhibitory concentration (IC50) in series [1] was determined as 0.00054 µM; in [2], 9.77 µM; in series [3], 6.43 µM; in [4], 8.77 µM; in series [5] it was 6.04 µM.
The matching figures for `COc1cc2c(Nc3ccc(F)c(Cl)c3)ncnc2cc1OCCCCCCn1ccnc1[N+](=O)[O-]`: 0.00144 µM, 13.4 µM, 6.52 µM, 5.63 µM and 1.84 µM.
For `C#Cc1cccc(Nc2ncnc3cc(OCCCn4ccnc4[N+](=O)[O-])c(OC)cc23)c1`, the IC50 in series [2] worked out at 2.31 µM; in series [3], 1.17 µM; in [4], 3.17 µM.
Consider `C#Cc1cccc(Nc2ncnc3cc(OCCCCCn4ccnc4[N+](=O)[O-])c(OC)cc23)c1`, for which the IC50 in series [1] amounted to 0.00047 µM; in series [2], 0.77 µM; in series [3], 0.18 µM; in [4], 1.31 µM; in series [5] it was 0.28 µM. In addition, the Drug metabolism result in series [6] and in [7] was “Metabolite detected” in each case. Moreover, the figures for the Activity in [8] and in series [9] were 12.46% and 26.15%, respectively. In addition, the metabolised at 0.5 h, 5 µM in series [10] is more than 80%; in [11] it was less than 10%.
For the molecule `COc1cc2c(Nc3cccc(Br)c3)ncnc2cc1OCCOCCn1ccnc1[N+](=O)[O-]`, the IC50 in [1] turned out to be 0.00082 µM; in series [2] it was 13 µM; in series [3] it was 10.1 µM; in series [4], 10.8 µM; in [5] it was 3.44 µM.
Taken in the same sequence, the figures for `COc1cc2c(Nc3cccc(Br)c3)ncnc2cc1OCCCCn1ccnc1[N+](=O)[O-]` were 0.00037 µM, 3.09 µM, 1.97 µM, 4.02 µM and 1.43 µM.
For the molecule `C#Cc1cccc(Nc2ncnc3cc(OCCCCn4ccnc4[N+](=O)[O-])c(OC)cc23)c1`, the IC50 in [1] worked out at 0.00026 µM; in [2], 2.21 µM; in series [3], 1.08 µM; in series [4], 2.52 µM; in series [5], 0.59 µM.
The matching figures for `COc1cc2c(Nc3ccc(OCc4cccc(F)c4)c(Cl)c3)ncnc2cc1OCCCCCCn1ccnc1[N+](=O)[O-]`: 0.0355 µM, more than 50 µM, more than 50 µM, more than 50 µM and more than 50 µM.
The matching figures for `COc1cc2c(Nc3ccc(OCc4cccc(F)c4)c(Cl)c3)ncnc2cc1OCCCCCn1ccnc1[N+](=O)[O-]`: 0.0166 µM, 19.9 µM, 14.4 µM, 14.1 µM and 5.04 µM.
The matching figures for `COc1cc2c(Nc3ccc(OCc4cccc(F)c4)c(Cl)c3)ncnc2cc1OCCOCCn1ccnc1[N+](=O)[O-]`: 0.0201 µM, 5.06 µM, 6.23 µM, 7.64 µM and 2.59 µM.
With `COc1cc2c(Nc3ccc(OCc4cccc(F)c4)c(Cl)c3)ncnc2cc1OCCCCn1ccnc1[N+](=O)[O-]`, the IC50 came out at 10.5 µM in [2], 8.69 µM in series [3], 4.49 µM in [4] and 2.27 µM in series [5].
For `C#Cc1cccc(Nc2ncnc3cc(OCCCCCCn4ccnc4[N+](=O)[O-])c(OC)cc23)c1`, the concentration for half-maximal inhibition (IC50) in series [1] amounted to 0.00057 µM; in [2] it was 10.3 µM; in series [3], 2.7 µM; in [4], 4.5 µM; in [5], 1.37 µM.
Turning to `Nc1n[n+]([O-])c2ccccc2[n+]1[O-]` [TIRAPAZAMINE], the IC50 in series [2] was more than 50 µM; in series [3], 6.9 µM; in [4], more than 50 µM.
Take `COc1cc2c(Nc3cccc(Br)c3)ncnc2cc1OCCCn1ccnc1[N+](=O)[O-]`: the IC50 in series [1] was 0.00049 µM; in series [2], 13.5 µM; in series [3], 7.83 µM; in series [4], 10.9 µM; in series [5], 2.82 µM.
For `COc1cc2c(Nc3ccc(F)c(Cl)c3)ncnc2cc1OCCCCCn1ccnc1[N+](=O)[O-]`, the IC50 in series [2] was 4.26 µM; in [3] it was 1.74 µM; in series [4] it was 4.08 µM; in series [5], 1.03 µM.
With `COc1cc2c(Nc3cccc(Br)c3)ncnc2cc1OCCCCCn1ccnc1[N+](=O)[O-]`, the IC50 in series [1] stood at 0.00033 µM; in series [2] it was 8.78 µM; in series [3], 8.42 µM; in series [4], 5.05 µM; in series [5] it was 2.54 µM.
Turning to `COc1cc2c(Nc3ccc(F)c(Cl)c3)ncnc2cc1OCCOCCn1ccnc1[N+](=O)[O-]`, the IC50 in series [1] was determined as 0.00032 µM; in series [2], 12.9 µM; in series [3], 7.64 µM; in [4] it was 9.86 µM; in series [5], 5.52 µM.
